How the values were obtained:
[1] = test system: 2950-K9 mouse colon carcinoma cells; assay: Chemoresistance assay, 2950-K9 cells with 5-Fluorouracil; type: cell-based; conditions: rising 5-FU 12-20 nM; BVDU 30 μM, compounds 1 μM or lower; FIG. 1b
Excerpt: (§1) In a chemoresistance assay, a HSP27 dependent resistance to a cytostatic drug is induced in cultured cells by slowly increasing the dose of the cytostatic over several cell passages. This approach is valid for multiple cell types and cytostatic drugs and allowed us to test compounds according to the invention for their ability to inhibit HSP27 and reestablish susceptibility of the resistant cells to the cancer drug.
(§2) The addition of HSP27 inhibitors prevents development of chemoresistance and reestablishes the killing effect of Bortezomib. Cell numbers are determined at the end of the final passage to compare their growth rates.
(§3) As a reference compound, BVDU was tested at a concentration of 30 μM as previously described (Heinrich et al. (2016)). The compounds according to the invention were tested at a concentration of 1 μM or lower (see below). Test compounds were added at the start of the experiment and again after each passage and their concentrations remained unchanged throughout. […] The appropriate non-toxic dose of the test compound was determined in a dose-finding experiment beforehand.
FIG. 1b: Results of chemoresistance assay showing the resensitization of chemoresistant 2950-K9 mouse colon carcinoma cells to the drug 5-Fluorouracil (5-FU) after treatment with test compounds. 2950-K9 cells (100,000) were seeded and cultured in the presence of rising concentrations of 5-FU (12-20 nM) and HSP27 inhibitor, and passaged every 4-7 days. Cell counts were taken after the last passage at the highest concentration of 5-FU and relative cell number determined. Test compounds were BVDU, and Compound 5, Compound 12 and Compound 4, according to the invention.

[2] = test system: RPMI 8226 multiple myeloma cells; assay: Chemoresistance assay, RPMI 8226 cells with Bortezomib; type: cell-based, human; conditions: for resensitization of chemoresistant RPMI 8226 multiple myeloma cells to Bortezomib (relative cell number): rising Bortezomib 0.5-1 nM or 0.75-1.3 nM, BVDU 30 μM, compounds 1 μM or lower, FIG. 1a
Excerpt: as §1
RPM-8226 cells, a human multiple myeloma cell line, were obtained from DSMZ (Leibniz Institute DSMZ-German Collection of Microorganisms and Cell Cultures). Cells were grown in RPMI 1640 medium (FG 1235; Biochrom AG, Berlin, Germany) supplemented with 10% (v/v) heat-inactivated fetal bovine serum in a humidified atmosphere containing 5% CO2 at 37° C. Logarithmically growing cells were seeded at a density of 100,000 cells/ml and incubated with Bortezomib (Velcade) in combination with or without test compounds. Cells were periodically counted using C-Chip Neubauer-improved counting chambers (Peqlab) and serially passaged. Cells were maintained below 1,000,000 cells/ml and typically passaged when the cell count reached 800,000 cells/ml. The starting dose of Bortezomib was typically 0.1 ng/ml and the concentration of Bortezomib was increased with each passage, e.g.: 1st passage, 0.1 ng/ml Bortezomib, 2nd passage 0.2 ng/ml Bortezomib, 3rd passage 0.3 ng/ml Bortezomib, etc.
Over 3-4 passages with increasing concentration of Bortezomib, cells begin to show resistance and finally grow at the same rate as untreated cells.
as §2, §3
FIG. 1a: Results of chemoresistance assay showing the resensitization of chemoresistant RPMI 8226 multiple myeloma cells to Bortezomib after treatment with test compounds. RPMI-8226 cells (100,000) were seeded and cultured in the presence of rising concentrations of Bortezomib (0.5-1 nM or 0.75-1.3 nM) and HSP27 inhibitor, and passaged every 4-7 days. Cell counts were taken after the last passage at the highest concentration of Bortezomib and relative cell number determined. Test compounds were BVDU, and Compound 12 and Compound 4, according to the invention.

HSP27 = HSP27 (Homo sapiens, UniProt P04792); assay: Aggregation assay: HSP27 chaperone activity on heat-induced aggregation of citrate synthase; type: biochemical; conditions: compound 10 μM; 1.44 μM CS, 481 nM HSP27, 43° C., 500 nm
Protocol: To test how small molecules affect the chaperone activity of HSP27, misfolding and aggregation of citrate synthase (CS), a well-known in vitro client protein of HSP27, was measured. Citrate synthase misfolds and aggregates when exposed to heat shock at 43° C. This heat denaturation is prevented or delayed in the presence of HSP27 (CS+HSP27) (Jakob et al. (1993)). […] The samples were incubated at 43° C. and the aggregation behavior of CS was monitored in a spectrometer (PerkinElmer LS55) at a wavelength of 500 nm. Substances inhibiting HSP27's chaperone activity lead to continued denaturation of the client protein and its aggregation in solution. This inhibition correlates with the strength of the interaction between HSP27 and the test substance, which is related to its binding efficiency.
In the reference experiment BVDU (CS+HSP27+BVDU) was tested at a concentration of 750 μM as previously described (Heinrich et al. (2016)).
The compounds according to the invention were tested at a concentration of 10 μM.

Sequence of HSP27 (P04792 whole entry): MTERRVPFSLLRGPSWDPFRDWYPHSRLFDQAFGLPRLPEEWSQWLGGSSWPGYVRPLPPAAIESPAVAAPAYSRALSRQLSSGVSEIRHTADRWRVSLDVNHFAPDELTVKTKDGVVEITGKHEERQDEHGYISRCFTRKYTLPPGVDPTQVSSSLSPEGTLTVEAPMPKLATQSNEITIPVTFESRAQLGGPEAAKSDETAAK

| aggregation value related to the value from reference experiment (CS + HSP27 + BVDU), which was set at 1.0 (HSP27) | SMILES | resensitization of chemoresistant 2950-K9 mouse colon carcinoma cells to 5-Fluorouracil (relative cell number) [1] | influence on cell growth of compound alone (control without cytostatic) ([2]; cells treated with only BVDU (30 μM) or test compound (1 μM or lower)) | resensitization of chemoresistant RPMI 8226 multiple myeloma cells to Bortezomib (relative cell number) [2] |
| --- | --- | --- | --- | --- |
| – | O=c1[nH]c(=O)n([C@H]2C[C@H](O)[C@@H](CO)O2)cc1/C=C/Br [BVDU, (E)-5-(2-bromovinyl)-2′-deoxyuridine, reference compound] | resensitization | did not influence cell growth | resensitization |
| 1.39 | O=C(Cc1cccc(-c2ccc(Cl)c(Cl)c2)c1)Nc1ccc(-n2ccc(=O)[nH]c2=O)cc1 [Compound 4, 2-(3′,4′-dichloro-[1,1′-biphenyl]-3-yl)-N-(4-(2,4-dioxo-3,4-dihydro-pyrimidin-1(2H)-yl)phenyl) acetamide] | resensitization | – | resensitization |
| 1.39 | O=C(Cc1cccc(-c2ccc(Cl)cc2Cl)c1)Nc1ccc(-n2ccc(=O)[nH]c2=O)cc1 [Compound 5, 2-(2′,4′-dichloro-[1,1′-biphenyl]-3-yl)-N-(4-(2,4-dioxo-3,4-dihydro-pyrimidin-1(2H)-yl)phenyl) acetamide] | resensitization | – | – |
| 1.57 | O=C(Cc1cccc(-c2ccc(Cl)c(Cl)c2)c1)Nc1ccc(-n2cc(F)c(=O)[nH]c2=O)cc1 [Compound 12, 2-(3′,4′-dichloro-[1,1′-biphenyl]-3-yl)-N-(4-(5-fluoro-2,4-dioxo-3,4-dihydro-pyrimidin-1(2H)-yl)phenyl) acetamide] | resensitization | – | resensitization |

Reference: patent publication US11214564B2, “Compounds with thymine skeleton for use in medicine” (TECHNISCHE UNIVERSITÄT DRESDEN, priority 2019, dated 2022)
